Results published in patent publication US20210070747A1, “2(1H)-QUINOLINONE DERIVATIVE” (priority 2017, published 2021).
Converted amounts (≈) assume the structure as drawn. Read-outs that look alike come from different tables or passages of the source.

Legend:
E. Coli ATCC 25922 = experiment: Test for evaluating antibacterial activity (E. coli), broth microdilution MIC; type: cell-based; conditions: Escherichia coli, ATCC25922; 35° C., 18 hours, cation-adjusted Mueller-Hinton medium
Method: Minimum inhibitory concentration (MIC) was measured using the broth microdilution method described below in accordance with a modification of the standard method specified by CLSI (Clinical & Laboratory Standards Institute).
(§1) Bacterial cells under test were cultured overnight on a heart infusion agar medium, scraped off and suspended at a concentration equivalent to McFarland 0.5 turbidity; the suspension thus obtained was diluted 10 folds to give a liquid inoculum. The inoculum (0.005 mL) was inoculated on a cation-adjusted Mueller-Hinton medium containing the analyte compound and cultured at 35° C. for 18 hours. A minimum drug concentration at which no bacterial growth was macroscopically visible was designated MIC.

E. coli DNA gyrase = target: T1, E. coli DNA gyrase (Escherichia coli, UniProt P0AES6); experiment: Test for evaluating the activity of inhibiting E. coli DNA gyrase enzyme (Method 2, supercoiling, recombinant gyrA/gyrB complex); type: biochemical
T1 construct: made in house; host or cells: E. coli BL21 (DE3)
Method: The enzymatic activity of E. coli DNA gyrase was measured by a method comprising reacting DNA gyrase and its substrate, relaxed pBR322 (Inspiralis), in the presence of ATP and detecting the post-reaction supercoiled pBR322/relaxed pBR322 ratio with H19.
Specifically, to 1 ng/μL of relaxed pBR322, E. coli DNA gyrase enzyme (the gyrA or gyrB gene was incorporated into the pET15b plasmid and after expressing them in E. coli BL21 (DE3), purification was performed using a Ni-NTA column to form a complex at room temperature) was added at a final concentration of 0.135 nmol/mL and the mixture was incubated for 60 minutes at room temperature. This reaction was carried out in 20 mmol/L tris-HCl buffered solution (pH 8.0) comprising 0.5 mmol/L ATP, 0.005% bridge 35, 35 mmol/L ammonium acetate, 8 mmol/L magnesium chloride, 4.6% glycerol, and 1 mmol/L dithiothreitol. To the reaction mixture, H19 was added to bring the reaction to an end; thereafter, the supercoiled pBR322/relaxed pBR322 ratio was detected at excitation wavelength/emission wavelength=485 nm/535 nm. An inhibition curve was obtained by allowing the analyte compound to be present at varying concentrations during the reaction described above.

[1] = tested on: N. gonorrhoeae ATCC 49226; experiment: Test for evaluating antibacterial activity (N. gonorrhoeae), broth microdilution MIC; type: cell-based; conditions: Neisseria gonorrhoeae, ATCC49226; 35° C., 24 hours, gonococcal broth
Method: Minimum inhibitory concentration (MIC) was measured using the broth microdilution method described below in accordance with a modification of the method of Geers et al. (Antimicrob. Agents. Chemother. (1989), 33, 233-234).
After sterilization, BD. Difco supplement C was added to give a final concentration of 1%, whereby a gonococcal broth was prepared.
as §1, with “chocolate II” for “heart infusion”, “5” for “10”, “gonococcal broth” for “cation-adjusted Mueller-Hinton medium”, “24” for “18”

[2] = Method 2, read-out: E. Coli Gyrase supercoiling IC50

| Structure (SMILES) | MIC (E. Coli ATCC 25922) [µg/mL] | IC50 (E. coli DNA gyrase; [2]) [nM] | MIC [1] [µg/mL] | IC50 (E. coli DNA gyrase) [nM] | inhibition at 0.1 µM (E. coli DNA gyrase; Method 2, at 100 nM) [%] |
| --- | --- | --- | --- | --- | --- |
| CNc1cccc2cc(C(=O)Nc3cccc(C(=O)O)c3)c(=O)[nH]c12 [Example 1, 3-[[8-(Methylamino)-2-oxo-1,2-dihydroquinoline-3-carbonyl]amino]benzoic Acid] | > 64 | 52.3 | > 4 |  |  |
| CNc1cccc2cc(C(=O)Nc3cccc(CC(=O)O)c3)c(=O)[nH]c12 [Example 4, (3-{[8-(methylamino)-2-oxo-1,2-dihydroquinoline-3-carboyl]amino}phenyl)acetic acid] | > 64 | 164 | > 4 |  |  |
| CNc1cccc2cc(C(=O)NCc3ccc(C(=O)O)cc3)c(=O)[nH]c12 [Example 6, 4-({[8-(methylamino)-2-oxo-1,2-dihydroquinoline-3-carbonyl]amino}methyl)benzoic acid] | > 64 |  | 4 (≈ 11.4 µM) |  |  |
| CNc1cccc2cc(C(=O)NCCc3nc(O)cc(O)n3)c(=O)[nH]c12 [Example 32, N-[2-(4,6-dihydroxy-pyrimidine-2-yl)ethyl]-8-(methylamino)-2-oxo-1,2-dihydroquinoline-3-carboxamide] | > 64 | 25.3 | > 4 |  |  |
| CNc1cccc2cc(C(=O)Nc3cnc(CO)nc3)c(=O)[nH]c12 [Example 37, N-[2-(hydroxymethyl)pyrimidine-5-yl]-8-(methylamino)-2-oxo-1,2-dihydroquinoline-3-carboxamide] | > 4 | 9.97 | 1 (≈ 3.07 µM) |  |  |
| CNc1cc(F)cc2cc(C(=O)NCCc3ccc(O)c(OC)c3)c(=O)[nH]c12 [Example 81, 6-fluoro-N-[2-(4-hydroxy-3-methoxyphenyl)ethyl]-8-(methylamino)-2-oxo-1,2-dihydroquinoline-3-carboxamide] |  | 110 | > 1 |  |  |
| CNc1cc(F)cc2cc(C(=O)Nc3ccc(C(=O)O)cc3CN(C)C3CCN(C)CC3)c(=O)[nH]c12.Cl [Example 83, 4-{[6-fluoro-8-(methylamino)-2-oxo-1,2-dihydroquinoline-3-carbonyl]amino)-3-{[methyl(1-methylpiperidine-4-yl)amino]methyl} benzoic acid-hydrochloride] | > 16 |  | > 4 | 1.09 |  |
| CNc1cc(F)cc2cc(C(=O)Nc3cnccc3CO)c(=O)[nH]c12 [Example 91, 6-Fluoro-N-[4-(hydroxymethyl)pyridin-3-yl]-8-(methylamino)-2-oxo-1,2-dihydroquinoline-3-carboxamide] | > 16 | 18.6 | 1 (≈ 2.92 µM) |  |  |
| CCc1cc(C(=O)O)ccc1NC(=O)c1cc2cc(F)cc(NC)c2[nH]c1=O [Example 93, 3-ethyl-4-{[6-fluoro-8-(methylamino)-2-oxo-1,2-dihydraquinoline-3-carbonyl]amino} benzoic acid] | > 2 | 31.8 | 0.25 (≈ 0.652 µM) |  |  |
| CNc1cc(F)cc2cc(C(=O)Nc3cnccc3CN(C)C3CCCCC3)c(=O)[nH]c12 [Example 95, N-(4-{[cyclohexyl(methyl)amino]methyl}pyridine-3-yl)-6-fluoro-8-(methylamino)-2-oxo-1,2-dihydroquinoline-3-carboxamide] | > 16 |  | 1 (≈ 2.29 µM) | 2.16 |  |
| CNc1cc(F)cc2cc(C(=O)Nc3c(C)cc(C(=O)O)cc3CN(C)C3CCCCC3)c(=O)[nH]c12 [Example 99, 3-{[cyclohexyl (methyl)amino]methyl}-4-{[6-fluoro-8-(methylamino)-2-oxo-1,2-dihydroquinoline-3-carbonyl]amino}-5-methylbenzoic acid] | 64 (≈ 129 µM) | 0.7 | 0.25 (≈ 0.505 µM) |  |  |
| CNc1cc(F)cc2nc(C(=O)Nc3ccc(C(=O)O)cc3CN(C)C3CCCCC3)c(=O)[nH]c12 [Example 100, 3-[[Cyclohexyl(methyl)amino]methyl]-4-[[7-fluoro-5-(methylamino)-3-oxo-3,4-dihydroquinoxaline-2-carbonyl]amino]benzoic Acid] | > 64 | 33.7 | > 1 |  |  |
| CNc1cc(F)cc2cc(C(=O)Nc3ccccc3CN(CC(=O)O)C3CCCCC3)c(=O)[nH]c12 [Example 103, N-cyclohexyl-N-[(2-{[6-fluoro-8-(methylamino)-2-oxo-1,2-dihydroquinoline-3-carbonyl]amino}phenyl)methyl]glycine] | > 64 |  | 4 (≈ 8.32 µM) | 12.1 |  |
| CCCCCCCCN(CCCCCCCC)Cc1cc(C(=O)O)ccc1NC(=O)c1cc2cc(F)cc(NC)c2[nH]c1=O [Example 106, 3-[(dioctylamino)methyl]-4-{[6-fluoro-8-(methylamino)-2-oxo-1,2-dihydroquinoline-3-carbonyl]amino} benzoic acid] | > 8 | 6.98 | 0.5 (≈ 0.821 µM) |  |  |
| CNc1cncc2cc(C(=O)Nc3ccc(C(=O)O)cc3CN(C)C3CCCCC3)c(=O)[nH]c12 [Example 108, 3-[[Cyclohexyl(methyl)amino]methyl]-4-[[8-(methylamino)-2-oxo-1,2-dihydro-1,6-naphthyridine-3-carbonyl]amino]benzoic Acid] | > 32 | 6.05 | > 1 |  |  |
| CNc1cc(F)cc2cc(C(=O)Nc3ccc(C(=O)O)cc3CN(CCN)C3CCCCC3)c(=O)[nH]c12.O=C(O)C(F)(F)F [Example 110, 3-{[(2-aminoethyl)(cyclohexyl)amino]methyl}-4-{[6-fluoro-8-(methylamino)-2-oxo-1,2-dihydroquinoline-3-carbonyl]amino}benzoic acid-trifluoroacetate] | > 64 |  | > 1 | 3.68 |  |
| CNc1cc(F)cc2cc(C(=O)N[C@H]3CC[C@H](C(=O)O)CC3)c(=O)[nH]c12 [Example 116, trans-4-{[6-fluoro-8-(methylamino)-2-oxo-1,2-dihydroquinoline-3-carbonyl]amino} cyclohexane-1-carboxylic acid] | > 64 |  | > 1 | 137 |  |
| CNc1cc(F)cc2c(OC)c(C(=O)Nc3ccc(C(=O)O)cc3)c(=O)[nH]c12 [Example 118, 4-[[6-Fluoro-4-methoxy-8-(methylamino)-2-oxo-1,2-dihydroquinoline-3-carbonyl]amino]benzoic Acid] | > 64 |  | 1 (≈ 2.6 µM) |  | 45 |
| CNc1cc(F)cc2cc(C(=O)Nc3ccc(C(N)=O)cc3CN(C)C3CCCCC3)c(=O)[nH]c12 [Example 121, N-(4-carbamoyl-2-{[cyclohexyl(methyl)amino]methyl}phenyl)-6-fluoro-8-(methylamino)-2-oxo-1,2-dihydroquinoline-3-carboxamide] | > 32 | 2.48 | 0.25 (≈ 0.521 µM) |  |  |
| CNc1cc(F)cc2cc(C(=O)Nc3ccc(CO)cc3CN(C)C3CCCCC3)c(=O)[nH]c12 [Example 122, N-[2-{[cyclohexyl(methyl)amino]methyl}-4-(hydroxymethyl)phenyl]-6-fluoro-8-(methylamino)-2-oxo-1,2-dihydroquinoline-3-carboxamide] | 16 (≈ 34.3 µM) | 1.92 | 0.5 (≈ 1.07 µM) |  |  |
| CNc1cc(F)cc2c(O)c(C(=O)Nc3ccccc3)c(=O)[nH]c12 [Example 129, 6-fluoro-4-hydroxy-8-(methylamino)-2-oxo-N-phenyl-1,2-dihydroquinoline-3-carboxamide] | > 16 | 387 | 1 (≈ 3.06 µM) |  |  |
| CNc1cc(F)cc2c(NCCCN)c(C(=O)Nc3ccc(C(=O)O)cc3)c(=O)[nH]c12.O=CO [Example 132, 4-({4-[(3-aminopropyl)amino]-6-fluoro-8-(methylamino)-2-oxo-1,2-dihydroquinoline-3-carbonyl}amino)benzoic acid-formate] | > 8 |  | 0.25 | 0.52 |  |
| CNc1cc(F)cc2c(NCC3CNC3)c(C(=O)Nc3ccc(C(=O)O)cc3)c(=O)[nH]c12.O=CO [Example 135, 4-{[4-{[(azetidine-3-yl)methyl]amino}-6-fluoro-8-(methylamino)-2-oxo-1,2-dihydroquinoline-3-carbonyl]amino}benzoic acid-formate] | > 16 |  | 0.12 | 0.66 |  |
